Reference: patent US7381739B2, “2,4-substituted indoles and methods of use” (Roche Palo Alto LLC, priority 2002, dated 2008)
Like-named read-outs stand apart in the source and are kept apart here.

Biological target: T1, recombinant human 5-HT6 receptor (Homo sapiens, UniProt P50406)
T1 construct: expressed in transfected cells
Experiment: in vitro radioligand binding, [3H]LSD competition in HEK293 cell membranes
Description: The binding activity of compounds of this invention in vitro was determined as follows. Duplicate determinations of ligand affinity are made by competing for binding of [^3H]LSD in cell membranes derived from HEK293 cells stably expressing recombinant human 5-HT6 receptor.
All determinations were made in assay buffer containing 50 mM Tris-HCl, 10 mM MgSO4, 0.5 mM EDTA, 1 mM ascorbic acid, pH 7.4 at 37° C., in a 250 microliter reaction volume. Assay tubes containing [^3H] LSD (5 nM), competing ligand, and membrane were incubated in a shaking water bath for 60 min. at 37° C., filtered onto Packard GF-B plates (pre-soaked with 0.3% PEI) using a Packard 96 well cell harvester and washed 3 times in ice cold 50 mM Tris-HCl. Bound [^3H] LSD was determined as radioactive counts per minute using Packard TopCount.
Displacement of [3H]LSD from the binding sites was quantified by fitting concentration-binding data to a 4-parameter logistic equation:
[formula] where Hill is the Hill slope, [ligand] is the concentration of competing radioligand and IC50 is the concentration of radioligand producing half-maximal specific binding of radioligand. The specific binding window is the difference between the Bmax and the basal parameters.

[1] = [3H]LSD (5 nM) displacement, membranes of HEK293 cells stably expressing recombinant human 5-HT6 receptor, pH 7.4, 37° C., 60 min, read-out: pKi (converted)

T1 sequence (P50406 whole entry): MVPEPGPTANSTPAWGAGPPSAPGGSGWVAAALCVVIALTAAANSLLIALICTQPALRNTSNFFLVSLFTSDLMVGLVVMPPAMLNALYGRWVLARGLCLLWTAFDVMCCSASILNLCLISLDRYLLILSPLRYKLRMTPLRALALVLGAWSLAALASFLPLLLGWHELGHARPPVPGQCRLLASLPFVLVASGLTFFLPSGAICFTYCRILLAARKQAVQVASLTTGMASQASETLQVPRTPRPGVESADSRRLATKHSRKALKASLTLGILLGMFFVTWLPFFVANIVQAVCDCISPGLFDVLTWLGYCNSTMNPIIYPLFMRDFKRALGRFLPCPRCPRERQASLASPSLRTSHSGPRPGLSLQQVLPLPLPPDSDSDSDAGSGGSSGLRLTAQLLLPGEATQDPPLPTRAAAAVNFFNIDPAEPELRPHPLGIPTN

| Ki [1] [nM] | Compound | Ki [nM] |
| --- | --- | --- |
|  | Cn1c(S(=O)(=O)c2cccc(Br)c2)cc2c(N3CCNCC3)cccc21 [Compound 14, 2-(3-Bromo-benzenesulfonyl)-1-methyl-4-piperazin-1-yl-1H-indole] | 0.501 |
| 0.126 | CN1CCN(c2cccc3[nH]c(S(=O)(=O)c4ccccc4F)cc23)CC1 [Compound 12, 2-(2-Fluoro-benzenesulfonyl)-4-(4-methyl-piperazin-1-yl)-1H-indole] |  |
|  | Cn1c(S(=O)(=O)c2ccccc2)cc2c(N3CCNCC3)cccc21 [Compound 5, 2-Benzenesulfonyl-1-methyl-4-piperazin-1-yl-1H-indole] | 0.2 |
| 0.794 | CC1CN(c2cccc3[nH]c(S(=O)(=O)c4ccccc4)cc23)CC(C)N1 (stereo not drawn) [Compound 9, 2-Benzenesulfonyl-4-(3,5-dimethyl-piperazin-1-yl)-1H-indole] |  |
| 0.126 | CN1CCN(c2cccc3[nH]c(S(=O)(=O)c4ccccc4)cc23)CC1 [Compound 2, 2-Benzenesulfonyl-4-(4-methyl-piperazin-1-yl)-1H-indole] |  |

| Compound | Ki [1] [nM] | Ki [nM] |
| --- | --- | --- |
| O=S(=O)(c1ccccc1)c1cc2c(C3CCNCC3)cccc2[nH]1 [Compound 15, 2-Benzenesulfonyl-4-piperidin-4-yl-1H-indole] | 0.631 |  |
